According to EP0435682A2, “The use of inclusion complexes of prostaglandins with cyclodextrins in the treatment of ocular hypertension” (ALLERGAN, INC., priority 1989, dated 1991):
Marks after values point to notes of the source that are not given here.

Test system: New Zealand Albino rabbits
Experiment: Intraocular pressure by applanation pneumatonometry after topical application to one eye
Type: in vivo
Conditions: 0.1% (w/v) solution, 25 µl to the surface of one eye
Method: Prostaglandin F2α TRIS salt was dissolved in either distilled water or in a 5% aqueous hydroxypropyl-β-cyclodextrin solution, to provide 0.1% (w/v) solutions. Two groups of experimental New Zealand Albino rabbits, containing 6 and 8 rabbits, respectively, were treated by administering 25µℓ of each solution to the surface of one eye. The contralateral eye received vehicle as a control. Intraocular pressure (IOP) was measured by applanation pneumatonometry model (Model 3ORT, manufactured by Digilab) at the time of administration, and at intervals of 1, 2, 3, 4, and 6 hours thereafter.

With “Prostaglandin F2α TRIS salt [Prostaglandin F2α (in aqueous)]” the “CHANGES IN INTRAOCULAR PRESSURE (mmHg) AT PREDETERMINED TIMES (HR)” value (from here on “CHANGES IN INTRAOCULAR PRESSURE”) (1.0 HR after administration) was -6.3* mmHg, the “CHANGES IN INTRAOCULAR PRESSURE” value (2.0 HR after administration) was -3.0 mmHg and the “CHANGES IN INTRAOCULAR PRESSURE” value (3.0 HR after administration) was -3.0 mmHg. The “CHANGES IN INTRAOCULAR PRESSURE” value (4.0 HR after administration) was -1.5 mmHg and the “CHANGES IN INTRAOCULAR PRESSURE” value (6.0 HR after administration) was 0 mmHg.
